Experiments:
P. aeruginosa PAO1 = assay: Checkerboard assays of TS with DFP, DSX or 10% serum; type: cell-based, Pseudomonas aeruginosa; conditions: 10:90 + 10% heat-inactivated mouse or human serum, regardless of DSX
Description: Human serum (Corning) and mouse serum (Equitech-Bio) were stored at −20° C. Sera were aliquoted into 5-ml culture tubes by thawing once at 37° C. for 30 min with occasional gentle mixing. Culture tubes were frozen at −20° C. until use. To make 10% serum solutions, serum was thawed for 10 min at 37° C. and then heat inactivated at 57° C. for 30 min. Two milliliters of heat-inactivated serum were added to 18 ml of 10:90 medium and gently mixed. This 10% serum solution was used for checkerboard assays.
Checkerboard assays were set-up using Nunc 96-well plates in an 8-well by 8-well format. Two columns were allocated for vehicle controls and two columns for sterility controls. Vehicle controls contained 2 μL DMSO plus 2 μL DFP solvent for checkerboards with TS and DFP or 4 μL DMSO for TS and DSX, in 146 μL of 10:90 medium or 10% serum inoculated with PA14 or PAO1-KP as described in Growth Curves. Sterile controls contained the same components in 10:90 medium or 10% serum, without cells. Serial dilutions of TS—with 17 μg/mL being the highest final concentration—were added along the y axis of the checkerboard (increasing concentration from bottom to top) whereas serial dilutions of DFP or DSX—with 512 μg/mL being the highest final concentration—were added along the x axis (increasing concentration from left to right). The final volume of each well was 150 μL and each checkerboard was repeated at least three times. Plates were incubated and the final OD600 determined as detailed above.

[1] = tested on: methicillin-resistant Staphylococcus aureus USA300; assay: Thiostrepton susceptibility of S. aureus in MHB versus 10:90; type: cell-based; conditions: both 10:90 medium and MHB
From the text: The susceptibility of P. aeruginosa PA14, E. coli BW25113, A. baumannii C0286, and S. aureus USA300 was compared in MHB versus 10:90 medium. E. coli lacks FpvAB and is resistant to TS in both media.

[2] = tested on: P. aeruginosa PAO1 and PA14 expressing Tsr; assay: TS susceptibility of P. aeruginosa expressing tsr in trans from pUCP20; type: cell-based, Pseudomonas aeruginosa; conditions: VBMM
Description: A) Growth of PAO1; B) Growth of PA14. Each assay was performed at least 3 times in triplicate; **** p<0.0001.
The tsr gene from pIJ6902 was PCR-amplified using primers 5′[…]-3′ and 5′[…]-3′. Both the PCR product and pUCP20 vector were digested with SmaI and HindIII, gel-purified, and ligated at a 1:3 molar ratio using T4 DNA ligase. The ligated DNA was transformed into E. coli DH5a and transformants selected on LB agar containing 100 μg/mL ampicillin and 5-bromo-4-chloro-3-indolyl-β-D-galactopyranoside for blue-white selection. Plasmids from white colonies were purified using a GeneJet Plasmid Miniprep kit (Thermo Scientific) following the manufacturer's protocols. After verification by restriction digest and DNA sequencing, pUCP20 and pUCP20-tsr were each introduced into P. aeruginosa PAO1 and PA14 by electroporation. Transformants were selected on LB agar containing 200 μg/mL carbenicillin.

With `C=C(NC(=O)C(=C)NC(=O)c1csc(C2=N[C@@H]3c4csc(n4)[C@H]4NC(=O)c5csc(n5)[C@H]([C@](C)(O)[C@@H](C)O)NC(=O)[C@H]5CSC(=N5)/C(=C/C)NC(=O)[C@H]([C@@H](C)O)NC(=O)c5csc(n5)[C@]3(CC2)NC(=O)[C@H](C)NC(=O)C(=C)NC(=O)[C@H](C)NC(=O)[C@H]([C@@H](C)CC)N[C@@H]2C=Cc3c([C@H](C)O)cc(nc3[C@H]2O)C(=O)O[C@@H]4C)n1)C(N)=O` [TS, thiostrepton] as the compound, how does the “concentration of TS required to inhibit growth in serum” value (P. aeruginosa PAO1) read?
The value was “markedly decreased”.

What about the “TS concentration inhibiting growth” value [1] of the same compound?
The value was < 40 nM.

And the “resistance to TS compared to vector-only control” value ([2]; PA14 expressing tsr in trans (pUCP20-tsr))?
The value was “significantly increased”.

What about the “TS concentration up to which the strain was resistant” value ([2]; PAO1 expressing tsr in trans (pUCP20-tsr)) of the same compound?
Its value is 10 µM.

Source: patent US20220168384A1, “Anti-Bacterial Combination Therapy” (McMaster University, priority 2019, published 2022)
